Series [1] deals with AGA-luciferase minigene constructs (c.128-2A>G). Briefly: AGA luciferase minigene splicing assay in AGU patient fibroblasts. Format: cell-based, human. Particulars: 24 h; for luciferase readout: increasing amounts; for luciferase activity: 7.5 mM.
Series [2] relates to endogenous AGA mRNA with exon 2. Format: cell-based, human. Particulars: 24 h, patient fibroblasts. On the procedure:
(§1) Fibroblasts were seeded into 6-well plates and treated with the following compounds: caffeine, theophylline, theobromine, pentoxifylline, doxofylline(1-7.5 mM, solvent H2O; TCI, Eschborn, Germany), luteolin (10-50 µM, solvent DMSO; Biozol, Eching, Germany) or kinetin (10-100 µM, solvent DMSO; TCI, Eschborn,Germany) for 24 h (RNA) or 48 h (protein lysate). Cells were harvested in lysis buffer (50 mM Tris pH 7.4, 150 mM NaCl, 2 mM EDTA, 1% NP-40), supplemented with protease inhibitor cocktail (Sigma-Aldrich). Protein concentrations in the lysates were determined according to the Bradford method.
(§2) For qPCRs, total RNA was isolated with peqGOLD TriFast™ (VWR, Darmstadt, Germany) and included a DNAse step. Total RNA (1-3 µg) were reverse transcribed with 150 fmol oligo(dT) primers and M-MuLV reverse transcriptase (NEB, Frankfurt, Germany) in a total volume of 45 µL. Real-time quantitative PCRs were performed using the CFX Connect Real-Time PCR Detection System (Bio-Rad, Munich, Germany). Annealing temperature was 60°C for all primers. The reactions were done as duplicates with 0.8 µL cDNA in a total volume of 10 µL using iTaq-TMUniversal SYBR Green Supermix (Bio-Rad). PCR products were quantified with the ACt-method. For normalization, the mean of the reference genes B2M, Rpl13a, Ywhaz and TBP was used. Table 2. Sequences of primers used for the quantitative real-time PCR.

In series [3] the test system is AGA minigene construct without luciferase (c.128-2A>G). The series is described as follows: cells. The format is cell-based, human. Particulars: 24 h; for fold induction at 7500 µM: Homo sapiens, HEK-293T, read-out: increase in the correctly spliced product (exons 2 and 3); for changes in the splicing (correctly spliced product): 7.5 mM, qRT-PCR. On the procedure:
as §2
RNA was isolated from the cells, reverse transcribed to cDNA, and a qRT-PCR with a fwd primer residing in exon 2 and a reverse primer in the plasmid vector (3'-untranslated region of the resulting RNA) was performed. Thus, amplification of a PCR product of 271 bp is only observed when both exons 2 and 3 are present in the mRNA.

Series [4] deals with AGA mRNA. Briefly: qRT-PCR of AGA mRNA in control fibroblasts. Particulars: 7.5 mM caffeine, 24 h. The format is cell-based, human. On the procedure:
as §1, §2
Background: In qPCR the cycle at which signal appears reflects the starting amount.

Series [5] relates to AGA minigene containing the splice variant (c.128-2A>G). Briefly: AGA minigene luciferase splicing assay in AGA knockout HEK293T cells. Particulars: for splicing of the AGA minigene / variant (summary statement): overall statement in the description, across the AGA assays.
Procedure: HEK293T (human embryonic kidney cells) cells were cultured in Dulbecco's modified Eagle's medium (DMEM) with high glucose, 10% fetal calf serum (FCS), 1 % penicillin/streptomycin (all from Gibco, Thermo Fisher Scientific, Germany). […] Immortalized, hTERT-transformed normal human skin fibroblasts were used as control [(Banning, A.; et al. Identification of Small Molecule Compounds for Pharmacological Chaperone Therapy of Aspartylglucosaminuria. Sci Rep 2016, 6, 37583]. All fibroblasts were cultured in DMEM (high glucose), 10% FCS, 1 % penicillin/streptomycin, 1 % non-essential amino acids and 1 % sodium pyruvate. All cells were grown at 8% CO2 and 37°C.
For transient transfection, cells were seeded onto 12-well plates on the day before transfection. For transfections, 400 ng of expression plasmid DNA and 50 ng of pRL-TK Renilla luciferase control reporter vector (Promega) were transfected using MACSfectin™ (Miltenyi Biotec, Bergisch Gladbach, Germany) according to the manufacturer's protocol. Fibroblasts were transfected with Neon Transfection System (Invitrogen). The following day, the cells were transferred onto 24-well plates, treated with specific substances and harvested after 24 h of treatment in lysis juice for firefly and renilla luciferase assay (PJK GmbH, Kleinblittersdorf, Germany). Determination of firefly and renilla luciferase activity was performed with a Tecan infinite M200 plate reader using 20 µl of lysate and 85 µl of beetle or renilla juice (PJK) as reagents. Relative luciferase activity was calculated by dividing the firefly luciferase activity by the renilla luciferase activity.
This construct contains the splice acceptor site mutation -2A>G in intron 1. If exon 2 is spliced out, altered reading frame in exon 3 produces an early STOP codon and prevents the expression of luciferase. However, if all three exons are correctly spliced, the luciferase ORF is translated in-frame as a fusion protein with the AGA protein sequence coded by exons 1-3.
Series [6] relates to AGA activity. The series is described as follows: AGA activity in patient fibroblasts, colorimetric Morgan-Elson assay with AADG as substrate. Particulars: 25 µM luteolin, 48 h. Format: cell-based, human. On the procedure: as §1
In most experiments, AGA activity was measured fluorimetrically as described in Banning, A.; et al. Sci Rep 2016, 6, 37583. […] In short, 12.5 µl of cell lysate were mixed with 100 nmol AADG, 3.35 µl 0,5 M KH2PO4, pH8, and 0.9% NaCl to reach a total volume of 25 µl. […] The liberated N-acetylglucosamine was measured at 585 nm. […]
Due to these encouraging data, the AGA activity was measured in patient fibroblasts treated with 25 µM luteolin (Figure 10b). Since luteolin acts as a quencher in our standard fluorescence-based AGA activity measurement [Schoefer, L.; Braune, A., FEMS Microbiol Lett 2001, 204, 277-280, and our own observations], we used a colorimetric activity assay [Tikkanen, R.; et al., DNA Cell Biol 1995, 14, 305-312] that is less sensitive but not subject to quenching by luteolin.

The mark [7] stands for this setting: 7.5 mM, 24 h, compared to untreated cells.

Take `Cn1c(=O)c2c(ncn2C)n(C)c1=O` [caffeine, 1,3,7-trimethylxanthine]: the luciferase readout entry in series [1] is reported as “significant, dose dependent increase in the luciferase readout”. The “endogenous AGA mRNA splicing products that contain exons 2 and 3” value in series [2] (7.5 mM caffeine) is recorded as “significantly increased to a level that corresponds to the untreated control fibroblasts”. The fold induction at 7500 µM in series [3] is around 20. The “AGA mRNA” value in series [4] is recorded as “increase in the AGA mRNA in control fibroblasts”. Moreover, in series [5] (setting [7]), the luciferase activity result is listed as “highest increase”.
Turning to `Cn1c(=O)c2c(ncn2CC2OCCO2)n(C)c1=O` [doxofylline, 7-(1,3-dioxolan-2-ylmethyl)-1,3-dimethylpurine-2,6-dione], the luciferase activity entry in series [1] is “failed to do so”; in series [5] (setting [7]), “significantly increased luciferase activity”. In series [3], the “changes in the splicing (correctly spliced product)” value was “did not produce significant changes in the splicing”. In addition, in series [5], the “splicing of the AGA minigene / variant (summary statement)” value is on record as “consistently failed to exert any significant effects”.
On to `c1coc(CNc2ncnc3[nH]cnc23)c1` [kinetin], for which, in series [2] (kinetin 50 µM), the “endogenous AGA mRNA with exon 2” value is recorded as “no significant increase”. Besides, the luciferase activity result in series [5] (kinetin, lower concentrations (from 10 µM, below 100 µM), 24 h) is recorded as “only minor effects”. The “splicing of the AGA minigene / variant (summary statement)” value in series [5] was “no systematic positive effect”.
Take `O=c1cc(-c2ccc(O)c(O)c2)oc2cc(O)cc(O)c12` [luteolin, 3',4',5,7-tetrahydroxyflavone]: the fold induction at 25 µM in series [2] (Homo sapiens, Fibroblast, luteolin 25 µM, read-out: increase of endogenous AGA mRNA with exon 2) is around 2.5. Moreover, the AGA activity result in series [6] was “significant increase in the AGA activity”. In addition, the “increase in luciferase activity” value in series [5] (25 µM luteolin, 24 h, most efficient concentration) was 5-6 fold. For the same molecule, the luciferase activity result in series [5] (all luteolin concentrations, 10 µM - 50 µM, 24 h) was “significant increase in luciferase activity”. The “luciferase expression in Western blot” value in series [5] (lysates of the luteolin/kinetin luciferase assay) is on record as “strong luciferase expression”.
For the molecule `CC(=O)CCCCn1c(=O)c2c(ncn2C)n(C)c1=O` [pentoxifylline, 3,7-dimethyl-1-(5-oxohexyl) xanthine], the luciferase activity result in series [1] is “significantly increased the luciferase activity”; in series [5] (setting [7]) it was “significantly increased luciferase activity”. Moreover, in series [3], the fold induction at 7500 µM lay within 5 to 10.
Consider `Cn1cnc2c1c(=O)[nH]c(=O)n2C` [theobromine, 3,7-dimethylxanthine], for which the luciferase activity result in series [1] is on record as “failed to do so”; in series [5] (four concentrations 1 mM - 7.5 mM, 24 h, compared to untreated cells) it was “non-significant changes”. For the same molecule, the “changes in the splicing (correctly spliced product)” value in series [3] was “did not produce significant changes in the splicing”.
In the case of `Cn1c(=O)c2[nH]cnc2n(C)c1=O` [theophylline, 1,3-dimethylxanthine], in series [1], the luciferase readout entry was “significant, dose dependent increase in the luciferase readout”. The fold induction at 7500 µM in series [3] lay within 5 to 10. The luciferase activity entry in series [5] (setting [7]) is on record as “significantly increased luciferase activity”.

The values above are taken from patent publication EP4088722A1, “PHARMACEUTICAL COMPOSITIONS, USES THEREOF AND METHODS FOR TREATMENT OF GENETIC DISEASES CAUSED BY INTRONIC SPLICE-ACCEPTOR SITE MUTATIONS” (priority 2021, dated 2022).
